The test system of one test is HL60. Description: cells. As for the experimental part: (§1) 10^4 cells per well were seeded in 96-well culture plates with or without one of the test compounds. Various concentrations for the test compound were examined. […] The drug concentration resulting in total growth inhibition (TGI) is determined when Ti=Tz.
(§2) Cells were seeded in a 96-well flat-bottomed plate (2,500 to 3,000 cells per well). […] After being incubated at 37° C. for 2 h, the supernatant was removed and 200 μl/well of DMSO were added to dissolve the remaining MTT dye. The absorbance at 570 nm in each well was determined using a plate reader.

For a further test, the system named is K562. The experiment in a line: cells. As for the experimental part:
as §1, §2

The test system of the next test is MV4-11. Description: cells. As for the experimental part:
as §1, §2

The subject of the next test is NB4. The experiment in a line: cells. As for the experimental part:
as §1, §2

Another test has as its system U937. Description: cells. As for the experimental part: as §1, §2
Test [1] relates to A549 (non-small cell lung cancer). Description: SRB assay, A549. Type of test: cell-based, Human. The settings on record: Homo sapiens, A549 cells, 48 h. As for the experimental part: (§3) Human cancer A549 (non-small cell lung cancer), MDA-MB-231 (estrogen-independent breast cancer), Hep 3B (hepatoma), and HA22T (hepatoma) cells were seeded in 96-well plates in medium with 5% FBS. After 24 h, cells were fixed with 10% trichloroacetic acid (TCA) to represent cell population at the time of compound addition (T0). After additional incubation of DMSO or test compound for 48 h, cells were fixed with 10% TCA and SRB at 0.4% (w/v) in 1% acetic acid was added to stain cells. Unbound SRB was washed out by 1% acetic acid and SRB bound cells were solubilized with 10 mM Trizrna base. The absorbance was read at a wavelength of 515 nm. Using the absorbance measurements of time zero (T0), the control group (C), and the cell growth in the presence of the compound (Ti), the percentage growth was calculated at each of the compound concentrations levels.

In test [2] the test system is MDA-MB-231 (estrogen-independent breast cancer). Description: SRB assay, MDA-MB-231. Type of test: cell-based. The settings on record: Homo sapiens, MDA-MB-231 cells, 48 h. As for the experimental part: as §3
In general terms: The SRB assay estimates cell density from bound dye.

The subject of another test is Hep 3B (hepatoma). Description: SRB assay, Hep 3B. The class given is cell-based. The settings on record: Homo sapiens, Hep3B, Hep-3B cells, 48 h, read-out: Hep-3B liver GI50. As for the experimental part: as §3
In the next test the test system is HA22T (hepatoma). The experiment in a line: SRB assay, HA22T. The settings on record: Homo sapiens, HA22T cells, 48 h, read-out: HA22T liver GI50. The class given is cell-based, Human. As for the experimental part: as §3
In the next test the test system is PC-3 cells. Description: Western blot analysis. The settings on record: PC-3 cells, 1, 2.5, or 5 μM, 48 hours. Type of test: cell-based. As for the experimental part:
PC-3 cells treated with a test compound at 1, 2.5, or 5 μM in RPMI 1640 supplemented with 10% FBS for 48 hours. The cells were collected and sonicated. Protein concentrations in the resultant lysates were determined by a Bradford protein assay kit (Bio-Rad, Hercules, Calif.). The protein lysate, containing the same amount of proteins, were subjected to 10% SDS-polyacrylarnide gel (10%) electrophoresis. The proteins on the gel were then transferred onto an Immobilon-nitrocellulose membrane (Millipore, Bellerica, Mass.) in a semi-dry transfer cell. The transblotted membrane was washed twice with tris-buffered saline containing 0.1% Tween 20 (TBST). After being blocked with TBST containing 5% nonfat milk for 40 min, the membrane was incubated with a primary antibody specific to Acetyl-H3 (antibody obtained from Upstate Biotechnology, Inc., Lake Placid, N.Y.), H3 (Upstate Biotechnology), Acetyl α-tubulin (Sigma-Aldrich, St. Louis, Mo.), phospho-Akt (Serine 473) (Cell Signaling Technologies, Danvers, Mass.), Akt (Cell Signaling Technologies), Acetyl p53 (Santa Cruz Biotechnology, Santa Cruz, Calif.), p53 (Santa Cruz Biotechnology), p21 (Santa Cruz Biotechnology), or α-tubulin (Sigma-Aldrich, St. Louis, Mo.) (1:3000 dilution) in TBST/1% nonfat milk at 4 overnight. The membrane was washed three times with TBST for a total of 15 min and then incubated with a goat anti-rabbit or anti-mouse IgG antibody conjugated with horseradish (diluted 1:3000) for 1 h at room temperature. After being washed for at least three times with TBST, the signal intensity for each protein band was determined.
A general note: In western blotting, separated proteins are transferred to a membrane and probed.

SMILES strings stand for the structures. Bounds are passed on as bounds.

The TGI is the concentration giving total growth inhibition. The GI50 is the concentration at which growth is held to half of that of the control. Consider `O=C(C=Cc1ccc2c(c1)CCN2S(=O)(=O)c1ccccc1)NO` [Compound 12, 3-(1-benzenesulfonyl-2,3-dihydro-1H-indol-5-yl)-N-hydroxy-acrylamide], for which the TGI in the test with HL60 (HL60 leukemia cells, MTT, 48 or 72 hr) came out at 65.3 nM; in the test on K562 (K562 leukemia cells, MTT, 48 or 72 hr) it was 982.0 nM; with MV4-11 (MV4-11 leukemia cells, MTT, 48 or 72 hr) it was 50.2 nM; in the test with NB4 (NB4 leukemia cells, MTT, 48 or 72 hr), 61.2 nM; with U937 (U937 leukemia cells, MTT, 48 or 72 hr), 8330.0 nM. In addition, the 50% growth inhibitory concentration (GI50) turned out to be 32.9 nM in the test on HL60 (Homo sapiens, HL-60); 149 nM in the test with K562 (Homo sapiens, K562); 13.1 nM in the test with MV4-11 (Homo sapiens, MV4-11); 31.5 nM with NB4 (Homo sapiens, NB-4); 54.7 nM in the test on U937 (Homo sapiens, U-937); 700 nM in [1]. Further, the GI50 in test [2] was determined as 250 nM; with Hep 3B (hepatoma), 210 nM; with HA22T (hepatoma), 620 nM. Besides, the CC50 is > 10000 nM in the test with K562 (Homo sapiens, K562, read-out: LC50); 87.2 nM in the test with MV4-11 (Homo sapiens, MV4-11, read-out: LC50); 91 nM with NB4 (Homo sapiens, NB-4, read-out: LC50); > 10000 nM in the test on U937 (Homo sapiens, U-937, read-out: LC50). Besides, in the test with PC-3 cells, the H3 expression entry was “upregulated”. In addition, in the test with PC-3 cells, the histone deacetylation entry is recorded as “inhibited”. Also, the tubulin acetylation entry in the test on PC-3 cells is given as “upregulated”.

The values above are taken from patent publication US9598364B2, “Indolyl or indolinyl hydroxamate compounds” (Taipei Medical University, priority 2010, dated 2017).
